Source: PMC8286840, “Identifying SARS-CoV-2 antiviral compounds by screening for small molecule inhibitors of Nsp3 papain-like protease” (Biochemical Journal, 2021)
Counter-ions that a name gives are not always drawn. Like-named read-outs stand apart in the source and are kept apart here.

Columns and labels:
[1] = molecular target: T1, SARS-CoV-2 PLpro (nsp3 1564–1878) (Severe acute respiratory syndrome coronavirus 2, UniProt P0DTD1); assay: biochemical; parameters: FRET-quenched peptide (Pro3) cleavage by PLpro, 10 min pre-incubation, slope over 20 min, normalised to no-compound control; conditions: high concentration screen, read-out: % of control remaining
[2] = molecular target: T1, SARS-CoV-2 PLpro (nsp3 1564–1878); assay: biochemical; parameters: FRET-quenched peptide (Pro3) cleavage by PLpro, 10 min pre-incubation, slope over 20 min, normalised to no-compound control; conditions: low concentration screen, read-out: % of control remaining

CC1=C(/C=C/C(C)=C/C=C/C(C)=C\C(=O)O)C(C)(C)CCC1 [13-cis Retinoic acid]
remaining activity at 3.75 µM ([1]; Well no.=3134): 98.9% | remaining activity at 3.75 µM ([1]; Well no.=4430): 96% | remaining activity at 1.25 µM ([2]; Well no.=3134): 98.4% | remaining activity at 1.25 µM ([2]; Well no.=4430): 95.1%

CCC(=O)O[C@]1(C(=O)CCl)[C@@H](C)C[C@H]2[C@@H]3CCC4=CC(=O)C=C[C@]4(C)[C@@]3(F)[C@@H](O)C[C@@]21C [Clobetasol propionate]
remaining activity at 3.75 µM ([1]; Well no.=1924): 99.3% | remaining activity at 3.75 µM ([1]; Well no.=8301): 89.7% | remaining activity at 1.25 µM ([2]; Well no.=1924): 98.4% | remaining activity at 1.25 µM ([2]; Well no.=8301): 95.3%

CO[C@H]1CC=C2CCN3CCC4=C(CC(=O)OC4)[C@]23C1 [Dihydro-beta-erythroidine hydrobromide]
remaining activity at 3.75 µM ([1]; Well no.=690): 88.6% | remaining activity at 1.25 µM ([2]; Well no.=690): 88.8%

Nc1ccn([C@H]2CC[C@@H](CO)O2)c(=O)n1 ["2',3' - Dideoxycytidine"]
remaining activity at 3.75 µM ([1]; Well no.=1980): 102% | remaining activity at 1.25 µM ([2]; Well no.=1980): 103%

CC(c1cc2ccccc2s1)N(O)C(N)=O (stereo not shown) [Zileuton]
remaining activity at 3.75 µM ([1]; Well no.=1764): 100% | remaining activity at 1.25 µM ([2]; Well no.=1764): 102%

COc1cc2ncnc(Nc3cccc(Cl)c3)c2cc1OC [AG 1478]
remaining activity at 3.75 µM ([1]; Well no.=2643): 99.8% | remaining activity at 1.25 µM ([2]; Well no.=2643): 97.4%

CS(=N)(=O)CC[C@H](N)C(=O)O (stereo partly drawn) [L-Methionine sulfoximine]
remaining activity at 3.75 µM ([1]; Well no.=1120): 99.8% | remaining activity at 1.25 µM ([2]; Well no.=1120): 96.3%

O=C(NCCN1CCOCC1)c1ccc(Cl)cc1 [Moclobemide]
remaining activity at 3.75 µM ([1]; Well no.=4640): 98.5% | remaining activity at 1.25 µM ([2]; Well no.=4640): 99.1%

CCc1ccc(N(CC(C)C)S(=O)(=O)c2ccc(OCC3CCOCC3)c(CO)c2)cc1 [GSK2981278]
remaining activity at 3.75 µM ([1]; Well no.=8561): 101% | remaining activity at 1.25 µM ([2]; Well no.=8561): 105%

COc1cc(Nc2ncc(F)c(Nc3ccc4c(n3)NC(=O)C(C)(C)O4)n2)cc(OC)c1OC [R406 (free base)]
remaining activity at 3.75 µM ([1]; Well no.=4951): 102% | remaining activity at 1.25 µM ([2]; Well no.=4951): 102%

Nc1nc(Cl)nc2c1ncn2[C@@H]1O[C@H](CO)[C@@H](O)[C@H]1O [2-Chloroadenosine]
remaining activity at 3.75 µM ([1]; Well no.=274): 101% | remaining activity at 1.25 µM ([2]; Well no.=274): 99.4%

CC(=O)CC/C=C(\C)CC/C=C(\C)CC/C=C(\C)CCC=C(C)C [Geranylgeranylacetone]
remaining activity at 3.75 µM ([1]; Well no.=6123): 95.3% | remaining activity at 1.25 µM ([2]; Well no.=6123): 96.8%

CNC1CCCN(c2c(F)cc3c(=O)c(C(=O)O)cn(C4CC4)c3c2OC)C1 (stereo not shown) [Balofloxacin]
remaining activity at 3.75 µM ([1]; Well no.=5058): 97.3% | remaining activity at 1.25 µM ([2]; Well no.=5058): 95.8%

CCc1ccc(NC(=O)Nc2c[nH]c3ccccc23)cc1 [H-151]
remaining activity at 3.75 µM ([1]; Well no.=8555): 103% | remaining activity at 1.25 µM ([2]; Well no.=8555): 102%

N#CCCCSC(=N)N [Kevetrin (hydrochloride)]
remaining activity at 3.75 µM ([1]; Well no.=6250): 103% | remaining activity at 1.25 µM ([2]; Well no.=6250): 103%

Cc1cnc(Nc2ccc(OCCN3CCCC3)cc2)nc1Nc1cccc(S(=O)(=O)NC(C)(C)C)c1 [TG101348]
remaining activity at 3.75 µM ([1]; Well no.=2853): 98.3% | remaining activity at 1.25 µM ([2]; Well no.=2853): 95.4%

CC(C)[C@H]1[C@@H]2CC[C@@H](C2)[C@@H]1N [AGN 192403 hydrochloride]
remaining activity at 3.75 µM ([1]; Well no.=116): 104% | remaining activity at 1.25 µM ([2]; Well no.=116): 101%

Cc1ccc(C)c(-c2cc(C(F)(F)F)nn2-c2ccc(S(N)(=O)=O)cc2)c1 [4-[5-(2,5-dimethylphenyl)-3-(trifluoromethyl)-1H-pyrazol-1-yl]benzenesulfonamide]
remaining activity at 3.75 µM ([1]; Well no.=5924): 89.1% | remaining activity at 1.25 µM ([2]; Well no.=5924): 97.9%

CCN(CCCCOC(=O)c1ccc(OC)c(OC)c1)C(C)Cc1ccc(OC)cc1 (stereo not shown) [Mebeverine (hydrochloride)]
remaining activity at 3.75 µM ([1]; Well no.=7048): 101% | remaining activity at 1.25 µM ([2]; Well no.=7048): 108%

CN(C)CCOC(C)(c1ccccc1)c1ccc(Cl)cc1 (stereo not shown) [Chlorphenoxamine]
remaining activity at 3.75 µM ([1]; Well no.=6219): 100% | remaining activity at 1.25 µM ([2]; Well no.=6219): 102%

Cn1cc(/C=C2\C(=O)Nc3cccnc32)c2ccccc21 [GW441756]
remaining activity at 3.75 µM ([1]; Well no.=2791): 103% | remaining activity at 1.25 µM ([2]; Well no.=2791): 103%

Nc1nc(OCc2cc(Br)cs2)c2[nH]cnc2n1 [Lomeguatrib]
remaining activity at 3.75 µM ([1]; Well no.=5885): 105% | remaining activity at 1.25 µM ([2]; Well no.=5885): 105%

CN(C)[C@@H]1C(O)=C(C(N)=O)C(=O)[C@@]2(O)C(O)=C3C(=O)c4c(O)ccc(Cl)c4[C@@H](O)[C@H]3C[C@@H]12 [Demeclocycline hydrochloride]
remaining activity at 3.75 µM ([1]; Well no.=484): 96.9% | remaining activity at 1.25 µM ([2]; Well no.=484): 99.1%

COc1ccc(Cl)cc1C(=O)NCCc1ccc(S(=O)(=O)NC(=O)NC2CCCCC2)cc1 [Glibenclamide]
remaining activity at 3.75 µM ([1]; Well no.=475): 102% | remaining activity at 1.25 µM ([2]; Well no.=475): 101%

CC(C)Nc1cccnc1N1CCN(C(=O)c2cc3cc(NS(C)(=O)=O)ccc3[nH]2)CC1 [Delavirdine mesylate]
remaining activity at 3.75 µM ([1]; Well no.=1676): 101% | remaining activity at 1.25 µM ([2]; Well no.=1676): 108%

COc1ccc(C(=O)NCc2ccc(OCCN(C)C)cc2)cc1OC [Itopride]
remaining activity at 3.75 µM ([1]; Well no.=2226): 88.2% | remaining activity at 1.25 µM ([2]; Well no.=2226): 87.9%

CN1CCN2c3ccccc3Cc3ccccc3C2C1 (stereo not shown) [Mianserin.HCl]
remaining activity at 3.75 µM ([1]; Well no.=1540): 101% | remaining activity at 1.25 µM ([2]; Well no.=1540): 100%

OC[C@H]1O[C@@H](n2cnc3c(NC4CCCC4)ncnc32)[C@H](O)[C@@H]1O [N6-Cyclopentyladenosine]
remaining activity at 3.75 µM ([1]; Well no.=330): 88.2% | remaining activity at 1.25 µM ([2]; Well no.=330): 85.8%

CC(CCc1ccccc1)NC(C)C(O)c1ccc(O)cc1 (stereo not shown) [Nylidrin hydrochloride]
remaining activity at 3.75 µM ([1]; Well no.=940): 95.1% | remaining activity at 1.25 µM ([2]; Well no.=940): 96%

C[C@H](Cc1ccc(OCC(=O)O)cc1)NC[C@H](O)c1cccc(Cl)c1 (racemic) [BRL 37344 sodium]
remaining activity at 3.75 µM ([1]; Well no.=183): 103% | remaining activity at 1.25 µM ([2]; Well no.=183): 98%

N=C(N)SCCN [2-(2-Aminoethyl)isothiourea dihydrobromide]
remaining activity at 3.75 µM ([1]; Well no.=353): 97.5% | remaining activity at 1.25 µM ([2]; Well no.=353): 96.2%

COc1ccc(C(=O)N2CCCC2=O)cc1 [Aniracetam]
remaining activity at 3.75 µM ([1]; Well no.=156): 108% | remaining activity at 3.75 µM ([1]; Well no.=1889): 95.2% | remaining activity at 1.25 µM ([2]; Well no.=156): 102% | remaining activity at 1.25 µM ([2]; Well no.=1889): 95.1%

CCN1/C(=C/C(C)=O)Sc2ccc(OC)cc21 [Cdc2-Like Kinase Inhibitor, TG003]
remaining activity at 3.75 µM ([1]; Well no.=2410): 109% | remaining activity at 1.25 µM ([2]; Well no.=2410): 106%

CNCCC(Oc1ccccc1OC)c1ccccc1 (stereo not shown) [Nisoxetine.HCl]
remaining activity at 3.75 µM ([1]; Well no.=1789): 99.5% | remaining activity at 1.25 µM ([2]; Well no.=1789): 103%

CN(Cc1cc(Br)cc(Br)c1N)C1CCCCC1 [Bromhexine]
remaining activity at 3.75 µM ([1]; Well no.=2177): 102% | remaining activity at 1.25 µM ([2]; Well no.=2177): 98.4%
